Where two headings read alike, the source gives them in different places.
What was measured:
[1] = test system: heightened spontaneous hind limb movements; assay: Spontaneous hind limb reflex activity in spinally transected rats (hyperreflexia); format: in vivo; details: for Integrated Activity, % of Control: ip, 30 minutes after dosing, spinally transected rats; for muscle spasticity: intraperitoneally
Method: The effectiveness of the compounds of this invention for treating muscle spasticity resulting from spinal trauma was tested in rats with heightened spontaneous hind limb movements. Four to six weeks before testing, anesthetized rats were spinally transected at the mid-thoracic level, resulting in this form of spontaneous limb activity. 4-Methyl-3-phenyl-5-methylsulfonyl-4H-1,2,4-triazole or clonidine were given intraperitoneally, and after 30-minutes reflex activity was measured in treated animals and untreated controls by a computerized apparatus designed to record, integrate and analyze this activity. […]

[2] = test system: strychnine-induced seizures; assay: animal or person; format: in vivo, mice; details: for ED50: Mus musculus, read-out: ED₅₀
Method: Groups of 10 to 20 male mice are administered one or more doses of test compound in an appropriate vehicle or, for comparison, the vehicle alone. At a selected time thereafter, strychnine sulfate, prepared as a solution in distilled water, is administered intraperitoneally at a dose of 2.7 mg/kg. […] Absence of tonic extension for greater than 15 minutes after strychnine administration is considered significant protection.

In the case of Cn1c(-c2ccccc2)nnc1S(C)(=O)=O [4-Methyl-3-phenyl-5-methylsulfonyl-4H-1,2,4-triazole], the “Integrated Activity, % of Control” value ([1]; 5.0 mg/kg) is reported as 137 ± 10 % of Control, the “Integrated Activity, % of Control” value ([1]; 10.0 mg/kg) is reported as 42.9 ± 12.7 % of Control and the “Integrated Activity, % of Control” value ([1]; 20.0 mg/kg) is reported as 75.3 ± 19.3 % of Control. For the same compound, the “Integrated Activity, % of Control” value ([1]; 40.0 mg/kg) was 51.3 ± 11.9 % of Control, the muscle spasticity ([1]; rats treated with more than 5 mg/kg) was “substantial reduction” and the ED50 ([2]; ip) was 12.8 mg/kg. The ED50 ([2]; po) was 7.3 mg/kg.

With CCSc1nnc(-c2ccccc2F)n1C [4-methyl-3-(2-fluorophenyl)-5-ethylthio-4H-1,2,4-triazole] the ED50 ([2]; ip) was 18.6 mg/kg and the ED50 ([2]; po) was 15.1 mg/kg.

CC[S+]([O-])c1nnc(-c2ccccc2)n1C (stereo not drawn) [4-methyl-3-phenyl-5-ethylsulfinyl-4H-1,2,4-triazole] was tested, and the ED50 ([2]; ip) was 14.4 mg/kg and the ED50 ([2]; po) was 8.1 mg/kg.

Work on CCS(=O)(=O)c1nnc(-c2ccccc2)n1C [4-methyl-3-phenyl-5-ethylsulfonyl-4H-1,2,4-triazole] yielded an ED50 ([2]; ip) of 19.3 mg/kg and an ED50 ([2]; po) of 8.5 mg/kg.

Clc1cccc(Cl)c1N=C1NCCN1 [Clonidine, clonidine, reference compound] was tested, and the “Integrated Activity, % of Control” value ([1]; 3.1 µg/kg) was 130.2 ± 43.9 % of Control, the “Integrated Activity, % of Control” value ([1]; 12.5 µg/kg) was 50.4 ± 9.8 % of Control and the “Integrated Activity, % of Control” value ([1]; 50.0 µg/kg) was 32.5 ± 9.5 % of Control. For the same compound, the muscle spasticity ([1]; rats treated with more than 3.1 µg/kg) was “substantial reduction”.

Work on CN1C(=O)CN=C(c2ccccc2)c2cc(Cl)ccc21 [Diazepam, reference compound] yielded an ED50 ([2]; ip) of 1.2 mg/kg.

Work on Clc1ccc2nsnc2c1NC1=NCCN1 [Tizanidine, reference compound] yielded a maximal protection ([2]; at 3.1 mg/kg i.p., doses of up to 50 mg/kg do not cause a greater effect, mice) of 60%.

For NCC(CC(=O)O)c1ccc(Cl)cc1 (stereo not drawn) [baclofen, reference compound], the “antagonism of strychnine-induced seizures” value ([2]; dosage range of from 12.5 to 200 mg/kg i.p., mice) was “over 50%” and the protection ([2]; no dose (12.5 to 200 mg/kg i.p.) causes 100% protection, mice) was under 100%.

Source: EP0495226B1, “3-Aryl-5-alkylthio-4H-1,2,4-triazoles for treatment of hyperreflexia due to spinal trauma” (priority 1990, dated 1992)
